# From US20240148713A1 (INDUSTRY-ACADEMIC COOPERATION FOUNDATION, YONSEI UNIVERSITY, priority 2021, published 2024)
# Legend:
# [1] = tested on: preclinical fibrosis model; conditions: cited from earlier work
# HS746T cell line [2] = assay: CCK-8 assay, MRTF A inhibitor and cisplatin alone or in combination; type: cell-based, human; conditions: 5 μg/ml inhibitor, after 24 hours 5 μM cisplatin, CCK-8 24 hours later, FIG. 8
# Experimental: In the same manner as described above, 5 μg/ml CCG-232601, CCG-203971 or CCG-222740 was first administered to the HS746T cell line, and after 24 hours, 5 μM cisplatin (CDDP) was administered to the cell line, and 24 hours after administration of CDDP, a CCK-8 assay was performed using a cell viability assay kit.
# [3] = tested on: alpha smooth muscle actin protein; conditions: cited from earlier work
# MKN1 [4] = assay: Cell viability (CCK-8), treatment alone, Example 1; type: cell-based, human; conditions: MKN1 stem-like cell line, different concentrations, 48 hours, FIG. 1
# Experimental: (§1) In order to evaluate the ability to inhibit the growth or metastasis of cancer cell lines or cancer stem cell lines in Examples of the present invention, the present inventors obtained the cell lines MKN1 and HS746T having human gastric cancer stem cell characteristics, and the human gastric cancer cell lines SNU601, YCC7 and NCIN87, from the American Type Culture Collection (ATCC) and the Korean Cell Line Bank (KCRB). The cell lines were cultured in different culture media under different culture conditions according to the ATCC or KCRB guides. The MKN1, SNU601, and NCIN87 cell lines were cultured in RPMI1640 media containing 10% fetal bovine serum (FBS), 2 mM L-glutamine, 100 U/ml penicillin and 100 μg/ml streptomycin, and the HS746T and YCC7 cell lines were cultured in DMEM media containing 10% FBS, 2 mM L-glutamine, 100 U/ml penicillin and 100 μg/ml streptomycin. All the cell lines were cultured at 37° C. under 5% CO2, and mycoplasma contamination tests were performed.
# (§2) The cell lines cultured in the Preparation Example were seeded into well plates at a density of 1×10^4 cells per well, and cultured overnight at 37° C. under 5% CO2. Next, each of the gastric cancer stem-like cell lines HS746T and MKN1 and the gastric cancer cell lines YCC7 and NCIN87 was treated with different concentrations of each of the anticancer drug cisplatin (CDDP), which is currently widely used in the treatment of gastric cancer patients, and the MRTF A inhibitor CCG-232601 compound, and after 48 hours, the number of cells was counted and the results are shown in FIG. 1. 100 μL of each cell culture and 10 μL of reaction buffer (CCK) were mixed together, placed in a 96-well plate, incubated for 1 hour at room temperature, and then measured for absorbance at a wavelength of 450 nm using a spectrophotometer (Synergy HTX Multi-Reader, BioTek, Winooski, VT, USA). At the same time, the number of cells in each sample was counted using a cell viability assay kit (Cell Counting Kit-8), and the counted value was expressed relative to the cell number of the negative control group so that the same cell number in each cell could be compared with the cell number of the negative control group. The experimental results are shown as the mean values of the repeated experiments.
# NCIN87 = assay: Cell viability (CCK-8), treatment alone, Example 1; type: cell-based, human; conditions: NCIN87 gastric cancer cell line, different concentrations, 48 hours, FIG. 1
# Experimental: as §1, §2
# HS746T [5] = assay: Cell viability (CCK-8), treatment alone, Example 1; type: cell-based, human; conditions: HS746T stem-like cell line, different concentrations, 48 hours, FIG. 1
# Experimental: as §1, §2
# YCC7 = assay: Cell viability (CCK-8), treatment alone, Example 1; type: cell-based, human; conditions: YCC7 gastric cancer cell line, different concentrations, 48 hours, FIG. 1
# Experimental: as §1, §2
# MKN1 [6] = assay: Transwell invasion assay; type: cell-based, human; conditions: MKN1, 10 μg/ml, 12 hours, matrigel transwell, FIG. 3
# Experimental: (§3) Transwell invasion assay was performed with or without CCG-232601 treatment. Invasion ability was measured using a 6.5-mm transwell with an 8.0 μm-pore polycarbonate membrane insert (Corning) after coating with matrigel (Corning) diluted with serum-free medium to 0.67 μg/μl. Then, 2×10^4 cells per well were suspended in 200 μl of serum-free medium with vehicle or 10 μg/ml CCG-232601, and 1,000 μl of culture medium containing 10% FBS was added to the lower chamber. After 12 hours, the transferred cells were stained with 0.2% crystal violet and observed under an optical microscope. The average number of cells penetrating the membrane was counted with ImageJ (NIH) in three randomly selected high-power fields and two independent experiments, and the results are shown in FIG. 3.
# HS746T [7] = assay: Transwell invasion assay; type: cell-based, human; conditions: 10 μg/ml, 12 hours, matrigel transwell, FIG. 3
# Experimental: as §3
# MKN1 [8] = assay: Oxygen consumption rate (OCR) and extracellular acidification rate (ECAR), extracellular flux analyzer; type: cell-based, human
# Experimental: (§4) In particular, in order to confirm that the CCG-232601 compound has an excellent inhibitory effect against the growth of cancer stem cells, the oxygen consumption rate (OCR) and extracellular acidification rate (ECAR) of the stern-like cell lines HS746T and MKN1 having high resistance to metabolic stress were measured and the results are FIG. 2. More specifically, each of the cell lines was inoculated at a confluency of 70 to 80% in Seahorse normal culture medium, and oxygen consumption rate (OCR, pmol/min/μg protein) and extracellular acidification rate (ECAR, mpH/min/μg protein) were analyzed using an XF96 or XFp extracellular flux analyzer (Agilent) to determine mitochondrial oxidation and glycolysis levels. Mitochondrial oxidation ability of the cells pretreated for 1 hour with or without 10 mM β-HB (Sigma) was evaluated using the Seahorse XF Mito Stress Kit (Agilent). To overcome changes in oxidation and glycolysis processes upon treatment with CCG-232601, the cells were pretreated overnight with vehicle or the inhibitor, and finally 10 mM β-hydroxybutyrate was added upon the first injection.
# HS746T [9] = assay: as above; type: cell-based, human
# Experimental: as §4
# HS746T cell line [10] = assay: CCK-8 assay, CCG-232601 and oxaliplatin alone or in combination; type: cell-based, human
# Experimental: In order to examine whether the co-administration of the compound CCG-232601 is also effective in improving drug sensitivity to other platinum-based anticancer drugs of the same family as cisplatin, the survival and growth inhibitory effects upon administration of CCG-232601 and oxaliplatin alone or in combination to the HS746T cell line were evaluated using a cell viability assay kit (Cell Counting Kit-8; CCK-8). Unlike administration alone, to evaluate the effect of co-administration, 5 μg/ml CCG-232601 was first administered to the HS746T cell line, and 24 hours after administration of CCG-232601, 24 μg/ml oxaliplatin was administered to the cell line, and 24 hours after administration of oxaliplatin, CCK-8 assay was performed using a cell viability assay kit.
# [11] = tested on: bleomycin-induced dermal fibrosis; conditions: administered orally to mice; cited from earlier work
# MKN1 cell line = assay: CCK-8 assay, CCG-232601 and cisplatin alone or in combination; type: cell-based, human; conditions: FIG. 6
# Experimental: Accordingly, in order to evaluate the effect of co-administration of the compound CCG-232601, the survival and growth inhibitory effects upon administration of cisplatin (CDDP) and CCG-232601 alone or in combination to the MKN1 cell line were evaluated using a cell viability assay kit (Cell Counting Kit-8; CCK-8). Unlike administration alone, to evaluate the effect of co-administration, 5 μg/ml CCG-232601 was first administered to the MKN1 cell line, and 24 hours after administration of CCG-232601, 5 μM cisplatin (CDDP) was administered to the cell line, and 24 hours after administration of CDDP, CCK-8 assay was performed using a cell viability assay kit.
# MKN1 [12] = assay: Drug sensitivity upon treatment with cisplatin (CDDP); type: cell-based, human
# Experimental: (§5) Drug sensitivity upon treatment with cisplatin (CDDP) was measured in the gastric cancer cell lines SNU601 and NCIN87 and the cell lines HS746T and MKN1 having gastric cancer stem cell-like characteristics, and the results are shown in FIG. 3.
# HS746T [13] = assay: as above; type: cell-based, human
# Experimental: as §5
# [14] = tested on: lung fibrosis lung fibroblasts; conditions: cited from earlier work
# [15] = tested on: murine model of skin injury; conditions: cited from earlier work
# [16] = tested on: human colonic myofibroblasts; conditions: cited from earlier work
smiles,measurement,setting,value
"O=C(Nc1ccc(Cl)cc1)C1CN(C(=O)c2cccc(-c3ccco3)c2)CC(F)(F)C1 (centres unmarked) [CCG-222740, N-(4-chlorophenyl)-5,5-difluoro-1-(3-(furan-2-yl)benzoyl)piperidine-3-carboxamide]",scar tissue formation,[1],effectively prevent scar tissue formation
same,drug sensitivity to cisplatin in combination versus cisplatin alone,HS746T cell line [2],drug sensitivity was improved
same,expression of alpha smooth muscle actin protein,[3],prevent the expression
"O=C(Nc1ccc(Cl)cc1)C1CN(C(=O)c2cccc(-c3ccncc3)c2)CC(F)(F)C1 (centres unmarked) [CCG-232601, N-(4-chlorophenyl)-5,5-difluoro-1-(3-(pyridin-4-yl)benzoyl)piperidine-3-carboxamide]",antitumor effect (cell number relative to negative control),MKN1 [4],exhibited antitumor effects
same,antitumor effect (cell number relative to negative control),NCIN87,exhibited antitumor effects
same,antitumor effect (cell number relative to negative control),HS746T [5],exhibited antitumor effects
same,antitumor effect (cell number relative to negative control),YCC7,exhibited antitumor effects
same,invasion and metastasis (cells penetrating the membrane),MKN1 [6],reduced the invasion and metastasis
same,invasion and metastasis (cells penetrating the membrane),HS746T [7],reduced the invasion and metastasis
same,susceptibility to glucose deprivation,"MKN1 [8]; MKN1, conclusion from OCR/ECAR results",greatly increased the susceptibility
same,glycolytic ECAR versus OCR (mitochondrial respiration),"MKN1 [8]; MKN1, pretreated overnight with inhibitor, FIG. 2",ECAR was higher than the OCR
same,susceptibility to glucose deprivation,HS746T [9]; conclusion from OCR/ECAR results,greatly increased the susceptibility
same,glycolytic ECAR versus OCR (mitochondrial respiration),"HS746T [9]; pretreated overnight with inhibitor, FIG. 2",ECAR was higher than the OCR
same,cytotoxicity at 5 µg/mL,"HS746T cell line [10]; Homo sapiens, 5 μg/ml CCG-232601, after 24 hours 24 μg/ml oxaliplatin, CCK-8 24 hours later, FIG. 7, read-out: reduction of cell viability compared to oxaliplatin alone",≥ 20%
same,"growth of the cancer stem-like cells, administered alone","HS746T cell line [10]; administered alone, FIG. 7",reduced the growth
same,drug sensitivity to cisplatin in combination versus cisplatin alone,HS746T cell line [2],drug sensitivity was improved
same,development of bleomycin-induced dermal fibrosis,[11],suppress the development
same,reduction of cell viability,"MKN1 cell line; MKN1, administered alone, compared to negative control group and cisplatin-alone group",20%
N.N.[Cl][Pt][Cl] [cisplatin],antitumor effect (cell number relative to negative control),MKN1 [4],exhibited significantly improved antitumor effects
same,antitumor effect (cell number relative to negative control),HS746T [5],exhibited significantly improved antitumor effects
same,resistance of the cell line to cisplatin,"MKN1 [12]; MKN1, FIG. 4",showed resistance
same,drug sensitivity lower than that of the cancer cell lines,"MKN1 [12]; MKN1 versus SNU601 and NCIN87, FIG. 4",20 to 40%
same,drug sensitivity lower than that of the cancer cell lines,"HS746T [13]; HS746T versus SNU601 and NCIN87, FIG. 4",20 to 40%
same,resistance of the cell line to cisplatin,"HS746T [13]; HS746T, FIG. 4",showed resistance
same,"effect on cell viability, administered alone","MKN1 cell line; MKN1, cisplatin alone",drug resistance
"O=C(Nc1ccc(Cl)cc1)C1CCCN(C(=O)c2cccc(-c3ccco3)c2)C1 (centres unmarked) [CCG-203971, N-(4-chlorophenyl)-1-(3-(furan-2-yl)benzoyl)piperidine-3-carboxamide]",antifibrotic activity,[14],shows antifibrotic activity
same,drug sensitivity to cisplatin in combination versus cisplatin alone,HS746T cell line [2],drug sensitivity was improved
same,antifibrotic activity,[15],shows antifibrotic activity
same,matrix stiffness and TGF-β-mediated fibrogenesis,[16],represses
